Assay results taken from patent US8916579B2, “5-fluoropyrimidinone derivatives” (Dow AgroSciences, LLC., priority 2009, dated 2014).
Like-named read-outs stand apart in the source and are kept apart here.

Legend:
[1] = system: Mycosphaerella graminicola; anamorph: Septoria tritici; Bayer code SEPTTR; assay: Fungicidal activity: leaf blotch of wheat, greenhouse wheat plants (variety Yuma), percent disease control; assay type: in vivo; details: Zymoseptoria tritici
Protocol: Evaluation of Fungicidal Activity: Leaf Blotch of Wheat (Mycosphaerella graminicola; anamorph: Septoria tritici; Bayer code SEPTTR)
Wheat plants (variety Yuma) were grown from seed in a greenhouse in 50% mineral soil/50% soil-less Metro mix until the first leaf was fully emerged, with 7-10 seedlings per pot. These plants were inoculated with an aqueous spore suspension of Septoria tritici either prior to or after fungicide treatments. After inoculation the plants were kept in 100% relative humidity (one day in a dark dew chamber followed by two to three days in a lighted dew chamber) to permit spores to germinate and infect the leaf. The plants were then transferred to a greenhouse for disease to develop.
The effectiveness of the test compounds in controlling disease was determined by assessing the severity of disease on treated plants, then converting the severity to percent control based on the level of disease on untreated, inoculated plants. • In each case of Table II the rating scale is as follows: […]

[2] = 24 h, One-Day Protectant (1DP), 100 ppm, wheat plants, read-out: SEPTTR 100 PPM 1DP (% Disease Control rating)
[3] = 72 h, Three-Day Curative (3DC), 100 ppm, wheat plants, read-out: SEPTTR 100 PPM 3DC (% Disease Control rating)
[4] = 24 h, read-out: SEPTTR 100 PPM 1DP (% Disease Control rating)
[5] = 72 h, read-out: SEPTTR 100 PPM 3DC (% Disease Control rating)

Structure (SMILES) | pest or weed control at 100 ppm [1, 2] [%] | pest or weed control at 100 ppm [1, 3] [%] | melting point [°C] | other results
CCn1cc(F)c(/N=C/N(C)C)nc1=O [Compound 34, (E)-N′-(1-ethyl-5-fluoro-2-oxo-1,2-dihydropyrimidin-4-yl)-N,N-dimethylformimidamide] | 76 to 100 | 76 to 100 | 157 to 160 | –
CCOCn1cc(F)c(NCc2ccccc2F)nc1=O [Compound 37, 1-(ethoxymethyl)-5-fluoro-4-(2-fluorobenzylamino)-pyrimidin-2(1H)-one] | 0 to 25 | 0 to 25 | – | –
CCNc1nc(=O)n(CC(C)C)cc1F [Compound 107] | 0 to 25 | 26 to 50 | – | –
Nc1nc(=O)n(-c2ccc3ccccc3c2)cc1F [Compound 55] | – | – | 272.8 to 274.2 | –
COc1ccc(-n2cc(F)c(N)nc2=O)cc1 [Compound 44] | – | – | 230 to 232 | –
Nc1nc(=O)n(/C=C/Cc2ccccc2)cc1F [Compound 49] | – | – | 212 to 214 | –
Nc1nc(=O)n(C2=CCCCC2)cc1F [Compound 51] | – | – | 190.6 to 192.7 | –
CCOCCn1cc(F)c(NC(=O)c2ccccc2F)nc1=O [Compound 101] | – | – | 116.8 to 117.8 | –
COc1ccc(/C=C/n2cc(F)c(/N=C/N(C)C)nc2=O)cc1 [Compound 63] | – | – | 264.3 to 265.3 | –
CCC/C=C/n1cc(F)c(N)nc1=O [Compound 53] | – | – | 152.8 to 153.4 | –
O=c1nc(NCc2ccccc2F)c(F)cn1C1=CCCCC1 [Compound 69] | – | – | 151.5 to 152.6 | –
O=c1nc(NCN2CCOCC2)c(F)cn1CN1CCOCC1 [Compound 1, 5-fluoro-1-morpholin-4-ylmethyl-4-[(morpholin-4-ylmethyl)amino]-1H-pyrimidin-2-one] | – | – | – | pest or weed control at 100 ppm [1, 4]: 76 to 100%; pest or weed control at 100 ppm [1, 5]: 76 to 100%
Cc1ccc(Cn2cc(F)c(N)nc2=O)cc1 [Compound 25, 4-amino-5-fluoro-1-(4-methylbenzyl)-pyrimidin-2(1H)-one] | 0 to 25 | 0 to 25 | – | –
Cc1ccc(Cn2cc(F)c(N(C)Cc3ccccc3F)nc2=O)cc1 [Compound 38, 5-fluoro-4-((2-fluorobenzyl)(methyl)amino)-1-(4-methylbenzyl)pyrimidin-2(1H)-one] | 0 to 25 | 0 to 25 | – | –
CN(C)/C=N/c1nc(=O)n(COC(=O)C(C)(C)C)cc1F [Compound 12, 2,2-dimethylpropionic acid 4-(dimethylamino-methyleneamino)-5-fluoro-2-oxo-2H-pyrimidin-1-ylmethyl ester] | 76 to 100 | 76 to 100 | – | –
CN(c1nc(=O)n(C)cc1F)S(=O)(=O)Cc1ccccc1 [Compound 9, N-(5-fluoro-1-methyl-2-oxo-1,2-dihydropyrimidin-4-yl)-N-methyl-C-phenylmethanesulfonamide] | 26 to 50 | 0 to 25 | – | –
CCNc1nc(=O)n(CCOCC)cc1F [Compound 108] | – | – | 63 to 65 | –
CN(C)/C=N/c1nc(=O)n(C2=CCCCC2)cc1F [Compound 60] | – | – | 173.2 to 174.4 | –
O=c1nc(NCc2ccccc2F)c(F)cn1-c1ccc2ccccc2c1 [Compound 73] | – | – | 207.5 to 209 | –
C=C(c1ccccc1)n1cc(F)c(N)nc1=O [Compound 52] | – | – | 211.2 to 213 | –
Nc1nc(=O)n(Cc2cccnc2)cc1F [Compound 75] | 26 to 50 | 76 to 100 | – | –
C=C(c1ccccc1)n1cc(F)c(/N=C/N(C)C)nc1=O [Compound 61] | – | – | 147 to 147.9 | –
CCOCCn1cc(F)c(N)nc1=O [Compound 78] | – | – | 207.3 to 208.2 | –

Structure (SMILES) | pest or weed control at 100 ppm [1, 2] [%] | pest or weed control at 100 ppm [1, 3] [%] | melting point [°C] | other results
CN(C)/C=N/c1nc(=O)n(Cc2ccc(F)cc2)cc1F [Compound 4, N′-[5-fluoro-1-(4-fluorobenzyl)-2-oxo-1,2-dihydro-pyrimidin-4-yl]-N,N-dimethylformamidine] | 26 to 50 | 0 to 25 | – | –
O=c1nc(NCOCc2ccccc2)c(F)cn1COCc1ccccc1 [Compound 15, 1-(benzyloxymethyl)-4-(benzyloxymethylamino)-5-fluoropyrimidin-2(1H)-one] | 0 to 25 | 0 to 25 | – | –
CSCn1cc(F)c(N)nc1=O [Compound 79] | – | – | 128.5 to 130.6 | –
Nc1nc(=O)n(CC2CC2)cc1F [Compound 74, 4-amino-1-(cyclopropylmethyl)-5-fluoropyrimidin-2(1H)-one] | 76 to 100 | 51 to 75 | – | –
CN(C)/C=N/c1nc(=O)n(-c2ccc3ccccc3c2)cc1F [Compound 64] | – | – | 222.4 to 224.4 | –
CCOCCn1cc(F)c(NC(=O)c2cccs2)nc1=O [Compound 100] | – | – | 109 to 110.4 | –
CN(C)/C=N/c1nc(=O)n(Cc2ccc(Cl)cc2Cl)cc1F [Compound 5] | 0 to 25 | 0 to 25 | – | –
CCOC(=O)Nc1nc(=O)n(CSC)cc1F [Compound 84] | – | – | 137.1 to 138.8 | –
CC(C)COC(=O)N(C)c1nc(=O)n(C)cc1F [Compound 11, (5-fluoro-1-methyl-2-oxo-1,2-dihydropyrimidin-4-yl)methylcarbamic acid isobutyl ester] | – | – | – | pest or weed control at 100 ppm [1, 4]: 26 to 50%; pest or weed control at 100 ppm [1, 5]: 0 to 25%
CN1CCN(CNc2nc(=O)n(CN3CCN(C)CC3)cc2F)CC1 [Compound 2, 5-fluoro-1-(4-methylpiperazin-1-ylmethyl)-4-[(4-methylpiperazin-1-ylmethyl)-amino]-1H-pyrimidin-2-one] | – | – | – | pest or weed control at 100 ppm [1, 4]: 76 to 100%; pest or weed control at 100 ppm [1, 5]: 76 to 100%
CS(=O)(=O)c1ccc(-n2cc(F)c(NCc3ccccc3F)nc2=O)cc1 [Compound 68] | – | – | 231.6 to 233.1 | –
CCOC(=O)Nc1nc(=O)n(Cc2cccnc2)cc1F [Compound 83] | 26 to 50 | 26 to 50 | – | –
CC(C)Cn1cc(F)c(NCc2ccccc2F)nc1=O [Compound 105, 5-fluoro-4-(2-fluorobenzylamino)-1-isobutyl-pyrimidin-2(1H)-one] | – | – | – | pest or weed control at 100 ppm [1, 4]: 0 to 25%; pest or weed control at 100 ppm [1, 5]: 26 to 50%
COc1ccc(/C=C/n2cc(F)c(NCc3ccccc3F)nc2=O)cc1 [Compound 72] | – | – | 196.8 to 198.5 | –
Nc1nc(=O)n(-c2ccccc2)cc1F [Compound 42] | – | – | 233 to 235 | –
CS(=O)(=O)c1ccc(-n2cc(F)c(N)nc2=O)cc1 [Compound 50] | – | – | 244.4 to 245.7 | –
COc1ccc(/C=C/n2cc(F)c(N)nc2=O)cc1 [Compound 54] | – | – | 263.3 to 265.1 | –
CCC/C=C/n1cc(F)c(/N=C/N(C)C)nc1=O [Compound 62] | – | – | 144.7 to 146.3 | –
Cc1ccc(C(=O)Nc2nc(=O)n(C)cc2F)cc1 [Compound 8, N-(5-fluoro-1-methyl-2-oxo-1,2-dihydro-pyrimidin-4-yl)-4-methyl-benzamide] | 26 to 50 | 0 to 25 | – | –
Nc1nc(=O)n(-c2ccc(Cl)cc2)cc1F [Compound 45] | – | – | 255 to 257 | –
CC(=O)Nc1nc(=O)n(CC2CCCO2)cc1F (stereo not drawn) [Compound 95] | 0 to 25 | 51 to 75 | – | –
Nc1nc(=O)n(/C=C/c2ccccc2)cc1F [Compound 48] | – | – | 256 to 258 | –
C=C(c1ccccc1)n1cc(F)c(NCc2ccccc2F)nc1=O [Compound 70] | – | – | 138.9 to 140.2 | –
